From patent US10040759B2, “Substituted azetidinyl compounds as GlyT1 inhibitors” (DART NEUROSCIENCE (CAYMAN) LTD., priority 2014, dated 2018) come the findings set out here.

The structures appear in SMILES notation. Where only a bound is given, the exact number is not on record here.

The target in the assay is T1, GlyT1 (Homo sapiens, UniProt P48067).
T1 construct: expressed in transfected cells
T1 sequence (P48067 1-706): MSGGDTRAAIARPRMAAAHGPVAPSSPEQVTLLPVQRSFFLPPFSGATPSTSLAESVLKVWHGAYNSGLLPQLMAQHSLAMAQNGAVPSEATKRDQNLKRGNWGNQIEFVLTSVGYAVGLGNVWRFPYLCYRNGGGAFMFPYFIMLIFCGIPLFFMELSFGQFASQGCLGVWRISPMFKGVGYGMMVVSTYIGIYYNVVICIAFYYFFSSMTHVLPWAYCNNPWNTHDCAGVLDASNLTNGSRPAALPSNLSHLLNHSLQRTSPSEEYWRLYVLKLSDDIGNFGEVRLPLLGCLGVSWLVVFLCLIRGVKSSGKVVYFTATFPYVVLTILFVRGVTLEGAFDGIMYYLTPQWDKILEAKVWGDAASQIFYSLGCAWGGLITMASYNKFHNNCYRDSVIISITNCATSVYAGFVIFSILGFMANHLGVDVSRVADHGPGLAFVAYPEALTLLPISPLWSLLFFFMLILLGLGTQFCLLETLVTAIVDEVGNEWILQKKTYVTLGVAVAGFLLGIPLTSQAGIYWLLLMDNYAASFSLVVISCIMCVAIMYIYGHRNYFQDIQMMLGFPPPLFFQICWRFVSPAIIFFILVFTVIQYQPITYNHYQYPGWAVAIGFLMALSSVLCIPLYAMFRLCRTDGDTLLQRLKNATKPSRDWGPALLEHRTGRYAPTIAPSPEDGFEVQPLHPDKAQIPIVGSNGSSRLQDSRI
Description: Glycine Transporter 1 (GlyT1) uptake assay, scintillation proximity assay of [14C]-glycine uptake. Type of assay: cell-based. The note with it: [14C]-glycine uptake; read-out: GlyT1 (pIC50) (converted). The method, boiled down:
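IC50 values were derived by four-parameter logistic fitting of counts. The 2× compound solutions were made by 1:100 dilution into HBSS of DMSO serial dilutions.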
A general note: Scintillation proximity formats need no separation of bound from free tracer.
Regarding `COc1c(S(C)(=O)=O)ccc(O[C@@H](C)C(F)(F)F)c1C(=O)N1CC(Oc2c(F)cccc2F)C1` [Example 203, 3-(2,6-Difluorophenoxy)-1-(3-methanesulfonyl-2-methoxy-6-{[(2S)-1,1,1-trifluoropropan-2-yl]oxy}benzoyl)azetidine], the IC50 was 0.1 to 1 µM.
On to `COc1c(S(C)(=O)=O)ccc(O[C@@H](C)C(F)(F)F)c1C(=O)N1CC(Oc2ccc(F)cc2F)C1` [Example 204, 3-(2,4-Difluorophenoxy)-1-(3-methanesulfonyl-2-methoxy-6-{[(2S)-1,1,1-trifluoropropan-2-yl]oxy}benzoyl)azetidine], for which the IC50 is below 0.1 µM.
For the compound `COc1c(S(C)(=O)=O)ccc(O[C@@H](C)C(F)(F)F)c1C(=O)N1CC(Oc2cc(F)ccc2F)C1` [Example 205, 3-(2,5-Difluorophenoxy)-1-(3-methanesulfonyl-2-methoxy-6-{[(2S)-1,1,1-trifluoropropan-2-yl]oxy}benzoyl)azetidine], the IC50 is below 0.1 µM.
For the compound `COc1c(S(C)(=O)=O)ccc(O[C@@H](C)C(F)(F)F)c1C(=O)N1CC(Oc2cccc(F)c2F)C1` [Example 206, 3-(2,3-Difluorophenoxy)-1-(3-methanesulfonyl-2-methoxy-6-{[(2S)-1,1,1-trifluoropropan-2-yl]oxy}benzoyl)azetidine], the IC50 was below 0.1 µM.
Consider `COc1c(S(C)(=O)=O)ccc(O[C@@H](C)C(F)(F)F)c1C(=O)N1CC(Oc2cccc(F)c2)C1` [Example 207, 3-(3-Fluorophenoxy)-1-(3-methanesulfonyl-2-methoxy-6-{[(2S)-1,1,1-trifluoropropan-2-yl]oxy}benzoyl)azetidine], for which the IC50 was below 0.1 µM.
With `COc1c(C#N)ccc(C2(F)CCOCC2)c1C(=O)N1CC(c2ccc(C(F)(F)F)cc2)C1` [Example 208, 4-(4-Fluorooxan-4-yl)-2-methoxy-3-({3-[4-(trifluoromethyl)phenyl]azetidin-1-yl}carbonyl)benzonitrile], the IC50 is below 0.1 µM.
Consider `COc1c(C#N)ccc(C2CCCC2)c1C(=O)N1CC(c2ncc(C(F)(F)F)cc2Cl)C1` [Example 209, 3-{3-[3-Chloro-5-(trifluoromethyl)pyridin-2-yl]azetidine-1-carbonyl}-4-cyclopentyl-2-methoxybenzonitrile], for which the IC50 was 0.1 to 1 µM.
As to `COc1c(C#N)ccc(C2CCCC2)c1C(=O)N1CC(c2ncc(C(F)(F)F)cc2F)C1` [Example 210, 4-Cyclopentyl-3-{3-[3-fluoro-5-(trifluoromethyl)pyridin-2-yl]azetidine-1-carbonyl}-2-methoxybenzonitrile], the IC50 was below 0.1 µM.
To `COc1c(C#N)ccc(C2CCCC2)c1C(=O)N1CC(Oc2ccc(C(F)(F)F)cc2)C1` [Example 211, 4-Cyclopentyl-2-methoxy-3-{3-[4-(trifluoromethyl)phenoxy]azetidine-1-carbonyl}benzonitrile] belongs 0.1 to 1 µM; to `COc1c(C#N)ccc(C2CCCC2)c1C(=O)N1CC(Oc2c(F)cc(F)cc2F)C1` [Example 212, 4-Cyclopentyl-2-methoxy-3-[3-(2,4,6-trifluorophenoxy)azetidine-1-carbonyl]benzonitrile], 0.1 to 1 µM.
Consider `COc1c(S(C)(=O)=O)ccc(OC(C)C)c1C(=O)N1CC(c2ccc(C(F)(F)F)cn2)C1` [Example 213, 2-{1-[3-Methanesulfonyl-2-methoxy-6-(propan-2-yloxy)benzoyl]azetidin-3-yl}-5-(trifluoromethyl)pyridine], for which the IC50 is 0.1 to 1 µM.
Regarding `COc1c(S(C)(=O)=O)ccc(OC(C)C)c1C(=O)N1CC(c2ncc(C(F)(F)F)cc2Cl)C1` [Example 214, 3-Chloro-2-{1-[3-methanesulfonyl-2-methoxy-6-(propan-2-yloxy)benzoyl]azetidin-3-yl}-5-(trifluoromethyl)pyridine], the IC50 is below 0.1 µM.
For the compound `COc1c(S(C)(=O)=O)ccc(OC(C)C)c1C(=O)N1CC(c2ncc(C(F)(F)F)cc2F)C1` [Example 215, 3-Fluoro-2-{1-[3-methanesulfonyl-2-methoxy-6-(propan-2-yloxy)benzoyl]azetidin-3-yl}-5-(trifluoromethyl)pyridine], the IC50 is 0.1 to 1 µM.
To `COc1c(S(C)(=O)=O)ccc(OC(C)C)c1C(=O)N1CC(c2ccc(F)c(F)c2)C1` [Example 216, 3-(3,4-Difluorophenyl)-1-[3-methanesulfonyl-2-methoxy-6-(propan-2-yloxy)benzoyl]azetidine] belongs 0.1 to 1 µM; to `COc1c(S(C)(=O)=O)ccc(OC(C)C)c1C(=O)N1CC(c2ccc(C(F)(F)F)cc2)C1` [Example 217, 1-[3-Methanesulfonyl-2-methoxy-6-(propan-2-yloxy)benzoyl]-3-[4-(trifluoromethyl)phenyl]azetidine], 0.1 to 1 µM; to `COc1c(S(C)(=O)=O)ccc(OC(C)C)c1C(=O)N1CC(Oc2ccc(C(F)(F)F)cc2)C1` [Example 218, 1-[3-Methanesulfonyl-2-methoxy-6-(propan-2-yloxy)benzoyl]-3-[4-(trifluoromethyl)phenoxy]azetidine], 0.1 to 1 µM.
The figure for `COc1c(S(C)(=O)=O)ccc(OC(C)C)c1C(=O)N1CC(Oc2ccc(Cl)cc2)C1` [Example 219, 3-(4-Chlorophenoxy)-1-[3-methanesulfonyl-2-methoxy-6-(propan-2-yloxy)benzoyl]azetidine] is 0.1 to 1 µM; for `COc1c(S(C)(=O)=O)ccc(OC(C)C)c1C(=O)N1CC(Oc2ccc(F)cc2F)C1` [Example 220, 3-(2,4-Difluorophenoxy)-1-[3-methanesulfonyl-2-methoxy-6-(propan-2-yloxy)benzoyl]azetidine] it is 0.1 to 1 µM; for `COc1c(S(C)(=O)=O)ccc(OC(C)C)c1C(=O)N1CC(Oc2c(F)cc(F)cc2F)C1` [Example 221, 1-[3-Methanesulfonyl-2-methoxy-6-(propan-2-yloxy)benzoyl]-3-(2,4,6-trifluorophenoxy)azetidine] it is below 0.1 µM.
The figure for `COc1c(S(C)(=O)=O)ccc(OCC(F)(F)F)c1C(=O)N1CC(Oc2ccc(Cl)cc2)C1` [Example 222, 3-(4-Chlorophenoxy)-1-[3-methanesulfonyl-2-methoxy-6-(2,2,2-trifluoroethoxy)benzoyl]azetidine] is 0.1 to 1 µM; for `COc1c(S(C)(=O)=O)ccc(OCC(F)(F)F)c1C(=O)N1CC(Oc2ccc(C(F)(F)F)cc2)C1` [Example 223, 1-[3-Methanesulfonyl-2-methoxy-6-(2,2,2-trifluoroethoxy)benzoyl]-3-[4-(trifluoromethyl)phenoxy]azetidine] it is 0.1 to 1 µM.
`COc1c(S(C)(=O)=O)ccc(OCC(F)(F)F)c1C(=O)N1CC(Oc2ccc(F)cc2C)C1` [Example 224, 3-(4-Fluoro-2-methylphenoxy)-1-[3-methanesulfonyl-2-methoxy-6-(2,2,2-trifluoroethoxy)benzoyl]azetidine]: the IC50 is 0.1 to 1 µM.
For `COc1c(S(C)(=O)=O)ccc(OCC(F)(F)F)c1C(=O)N1CC(Oc2c(F)cc(F)cc2F)C1` [Example 225, 1-[3-Methanesulfonyl-2-methoxy-6-(2,2,2-trifluoroethoxy)benzoyl]-3-(2,4,6-trifluorophenoxy)azetidine], the IC50 is 0.1 to 1 µM.
In the case of `COc1c(S(C)(=O)=O)ccc(OCC(F)(F)F)c1C(=O)N1CC(Oc2cc(F)c(F)cc2F)C1` [Example 226, 1-[3-Methanesulfonyl-2-methoxy-6-(2,2,2-trifluoroethoxy)benzoyl]-3-(2,4,5-trifluorophenoxy)azetidine], the IC50 was 0.1 to 1 µM.
In the case of `COc1c(S(C)(=O)=O)ccc(OCC(F)(F)F)c1C(=O)N1CC(Oc2ccc(F)cc2F)C1` [Example 227, 3-(2,4-Difluorophenoxy)-1-[3-methanesulfonyl-2-methoxy-6-(2,2,2-trifluoroethoxy)benzoyl]azetidine], the IC50 was 0.1 to 1 µM.
With `COc1c(S(C)(=O)=O)ccc(OCC(F)(F)F)c1C(=O)N1CC(c2ccc(F)c(F)c2)C1` [Example 228, 3-(3,4-Difluorophenyl)-1-[3-methanesulfonyl-2-methoxy-6-(2,2,2-trifluoroethoxy)benzoyl]azetidine], the IC50 is 0.1 to 1 µM.
`COc1c(S(C)(=O)=O)ccc(OCC(F)(F)F)c1C(=O)N1CC(c2ccc(C(F)(F)F)cn2)C1` [Example 229, 2-{1-[3-Methanesulfonyl-2-methoxy-6-(2,2,2-trifluoroethoxy)benzoyl]azetidin-3-yl}-5-(trifluoromethyl)pyridine]: the IC50 is 0.1 to 1 µM.
For `COc1c(S(C)(=O)=O)ccc(OCC(F)(F)F)c1C(=O)N1CC(c2ncc(C(F)(F)F)cc2Cl)C1` [Example 230, 3-Chloro-2-{1-[3-methanesulfonyl-2-methoxy-6-(2,2,2-trifluoroethoxy)benzoyl]azetidin-3-yl}-5-(trifluoromethyl)pyridine], the IC50 was 0.1 to 1 µM.
To `COc1c(S(C)(=O)=O)ccc(OCC(F)(F)F)c1C(=O)N1CC(c2ncc(C(F)(F)F)cc2F)C1` [Example 231, 3-Fluoro-2-{1-[3-methanesulfonyl-2-methoxy-6-(2,2,2-trifluoroethoxy)benzoyl]azetidin-3-yl}-5-(trifluoromethyl)pyridine] belongs 0.1 to 1 µM.
